Results: patent publication US9975882B2, “Heteroaromatic compounds as BTK inhibitors” (Boehringer Ingelheim International GmbH, priority 2015, dated 2018)
Where two headings read alike, the source gives them in different places.

Key:
[1] = Plasma compound exposure in rats (tail bleed, day 6); type: in vivo; conditions: plasma, rat
Protocol: (§1) All animals (telemetry-instrumented) are single housed in metabolic cages. Rats are acclimated to the metabolic cage for at least 3 days and then dosed with vehicle for up to 4 days. Blood pressure, heart rate, and bodyweight are collected during the baseline period and animals are randomized into 3 groups based on these parameters (n=8-9/group). Treatment groups are: vehicle and test compound (10 mg/kg po and 30 mg/kg po qd); animals are treated with compound for 5 days. […] Mean arterial pressure (MAP) and heart rate (HR) are collected continuously throughout the study. Statistical analyses is performed using GraphPad Prism based on the average 24-hr mean value during five days of compound administration (one-way ANOVA with Dunnett's post-test vs. Vehicle; p<0.05 is considered statistically significant).

[2] = target: human recombinant Txk (full length, GST-tagged) (Homo sapiens (Human), UniProt P42681); assay: TXK Z'-LYTE assay; conditions: read-out: TXK IC50, 100 μM ATP;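 further: FRET read-out of kinase phosphorylation of a synthetic peptide labelled with Coumarin and Fluorescein, scored by protease sensitivity of unphosphorylated peptide, incubated at 22 °C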
human recombinant Txk (full length, GST-tagged), sequence (P42681 whole entry): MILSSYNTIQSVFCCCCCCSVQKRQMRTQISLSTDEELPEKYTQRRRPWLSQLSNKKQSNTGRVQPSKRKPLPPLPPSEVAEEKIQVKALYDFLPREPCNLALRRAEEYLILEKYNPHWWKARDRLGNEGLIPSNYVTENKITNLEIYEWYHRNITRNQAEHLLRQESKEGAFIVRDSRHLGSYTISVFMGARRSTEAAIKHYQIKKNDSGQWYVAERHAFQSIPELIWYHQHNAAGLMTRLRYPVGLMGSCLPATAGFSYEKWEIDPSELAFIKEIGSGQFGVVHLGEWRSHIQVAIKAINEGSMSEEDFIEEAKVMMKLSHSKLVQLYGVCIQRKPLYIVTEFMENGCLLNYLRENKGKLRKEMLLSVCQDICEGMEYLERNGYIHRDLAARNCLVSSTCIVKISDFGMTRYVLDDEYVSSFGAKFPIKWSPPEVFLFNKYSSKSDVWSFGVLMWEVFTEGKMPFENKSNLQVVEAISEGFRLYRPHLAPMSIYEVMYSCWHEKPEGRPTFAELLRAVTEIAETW
Protocol: Z′-LYTE™ Assay (Life Technologies):
(§3) The Z′-Lyte assay employs a FRET-based, coupled-enzyme format and is based on the differential sensitivity of phosphorylated and non-phosphorylated peptides to proteolytic Cleavage. The activity of human recombinant BTK (full length, His-tagged), BMX (full length, His-tagged) or Txk (full length, GST-tagged) is estimated by measuring the phosphorylation of a synthetic FRET peptide substrate labeled with Coumarin and Fluorescein. […] Incubations are carried out at 22° C. in black polypropylene 384-well plates (Corning).
(§4) Representative compounds of the present invention are assessed for inhibition of BTK, BMX, and TXK measuring phosphorylation of a substrate (Z′-LYTE™ assay, Life Technologies) and TEC measuring displacement of a “tracer” (Lanthscreen® Eu Kinase Binding assay, Life Technologies).

[3] = tested on: BTK (IL-6 production in primary CD19+ B cells); assay: Inhibition of IL-6 production in B cells co-stimulated with ODN 2006 and anti-hIgD; type: cell-based; conditions: B-cell, anti-human IgD + ODN 2006
Protocol: Inhibition of IL-6 Production in B Cells Co-Stimulated with ODN 2006 and anti-hIgD
Primary CD19+ B cells (AllCells #PB010F) are thawed and plated in RPMI containing 10% HI FBS in a 384-well tissue cultured plate at 20,000 cells/well. The cells are treated with test compound (0.5% DMSO final concentration) and incubated for 1 hour at 37° C., 5% CO2. Cells are then stimulated with 5 ug/mL Goat F(ab′)2 anti-human IgD (SouthernBiotech #2032) and 2 uM ODN 2006 (InvivoGen #tlrl-2006) and incubated for 18-24 hours at 37° C., 5% CO2. IL-6 in the supernatant is measured using Meso Scale Discovery kit #K211AKB-6.
(§2) Representative compounds of the present invention are tested and show BTK inhibition (Table I). […] Additionally, compounds of the present invention, as represented by examples in Table II, are selective for BTK inhibition over other related kinases. […] In this table the BTK activity is measured by IL-6 production in primary CD19^+ B cells, and the EGFR activity is measured by EGFR phosphorylation in A431 cells.

[4] = tested on: mean arterial pressure (MAP); conditions: rat, in vivo, po
Protocol: In-Vivo Assay—Comparison Between the Compounds of the Present Invention and Comparative Compounds A, B and C
In a side-by-side in-vivo study, select compounds of the present invention and comparative compounds A-C are evaluated in telemetry-instrumented conscious rats to determine their effects on mean arterial pressure (MAP) at doses at or above therapeutically relevant concentrations.
as §1

[5] = target: human recombinant BTK (full length, His-tagged) (Homo sapiens (Human), UniProt Q06187); assay: BTK Z'-LYTE assay; type: biochemical; conditions: 25 μM ATP;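 further: FRET readout of kinase phosphorylating a coumarin and fluorescein labelled synthetic peptide, detected via protease sensitivity of unphosphorylated versus phosphorylated substrate, incubated at 22 °C in 384-well plates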
human recombinant BTK (full length, His-tagged), sequence (Q06187 whole entry): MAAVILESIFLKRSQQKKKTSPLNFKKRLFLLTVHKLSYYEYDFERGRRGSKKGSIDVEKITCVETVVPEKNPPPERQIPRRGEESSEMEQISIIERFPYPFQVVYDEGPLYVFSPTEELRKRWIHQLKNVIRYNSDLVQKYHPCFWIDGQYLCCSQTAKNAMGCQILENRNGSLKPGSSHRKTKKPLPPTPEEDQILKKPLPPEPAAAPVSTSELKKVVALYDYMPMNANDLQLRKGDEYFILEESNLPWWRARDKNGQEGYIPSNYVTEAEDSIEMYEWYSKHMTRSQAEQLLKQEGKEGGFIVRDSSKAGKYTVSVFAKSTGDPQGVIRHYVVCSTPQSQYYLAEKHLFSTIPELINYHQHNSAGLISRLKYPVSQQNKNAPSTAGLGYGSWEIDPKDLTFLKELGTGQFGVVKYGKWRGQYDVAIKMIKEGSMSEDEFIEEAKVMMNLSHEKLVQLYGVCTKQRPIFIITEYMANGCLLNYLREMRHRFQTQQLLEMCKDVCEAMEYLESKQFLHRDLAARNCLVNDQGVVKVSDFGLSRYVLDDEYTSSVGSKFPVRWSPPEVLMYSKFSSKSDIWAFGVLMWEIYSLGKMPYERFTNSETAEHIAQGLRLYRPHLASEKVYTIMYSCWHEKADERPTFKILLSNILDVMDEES
Protocol: Z′-LYTE™ Assay (Life Technologies):
as §3, §4

[6] = target: EGFR (EGFR phosphorylation in A431 cells) (Homo sapiens (Human), UniProt P00533); assay: Inhibition of EGFR autophosphorylation in A431 human epithelial cells stimulated with EGF; type: cell-based; conditions: EGF 60 ng/mL, read-out: A431 p-EGFR IC50
EGFR (EGFR phosphorylation in A431 cells), sequence (P00533 25-1210): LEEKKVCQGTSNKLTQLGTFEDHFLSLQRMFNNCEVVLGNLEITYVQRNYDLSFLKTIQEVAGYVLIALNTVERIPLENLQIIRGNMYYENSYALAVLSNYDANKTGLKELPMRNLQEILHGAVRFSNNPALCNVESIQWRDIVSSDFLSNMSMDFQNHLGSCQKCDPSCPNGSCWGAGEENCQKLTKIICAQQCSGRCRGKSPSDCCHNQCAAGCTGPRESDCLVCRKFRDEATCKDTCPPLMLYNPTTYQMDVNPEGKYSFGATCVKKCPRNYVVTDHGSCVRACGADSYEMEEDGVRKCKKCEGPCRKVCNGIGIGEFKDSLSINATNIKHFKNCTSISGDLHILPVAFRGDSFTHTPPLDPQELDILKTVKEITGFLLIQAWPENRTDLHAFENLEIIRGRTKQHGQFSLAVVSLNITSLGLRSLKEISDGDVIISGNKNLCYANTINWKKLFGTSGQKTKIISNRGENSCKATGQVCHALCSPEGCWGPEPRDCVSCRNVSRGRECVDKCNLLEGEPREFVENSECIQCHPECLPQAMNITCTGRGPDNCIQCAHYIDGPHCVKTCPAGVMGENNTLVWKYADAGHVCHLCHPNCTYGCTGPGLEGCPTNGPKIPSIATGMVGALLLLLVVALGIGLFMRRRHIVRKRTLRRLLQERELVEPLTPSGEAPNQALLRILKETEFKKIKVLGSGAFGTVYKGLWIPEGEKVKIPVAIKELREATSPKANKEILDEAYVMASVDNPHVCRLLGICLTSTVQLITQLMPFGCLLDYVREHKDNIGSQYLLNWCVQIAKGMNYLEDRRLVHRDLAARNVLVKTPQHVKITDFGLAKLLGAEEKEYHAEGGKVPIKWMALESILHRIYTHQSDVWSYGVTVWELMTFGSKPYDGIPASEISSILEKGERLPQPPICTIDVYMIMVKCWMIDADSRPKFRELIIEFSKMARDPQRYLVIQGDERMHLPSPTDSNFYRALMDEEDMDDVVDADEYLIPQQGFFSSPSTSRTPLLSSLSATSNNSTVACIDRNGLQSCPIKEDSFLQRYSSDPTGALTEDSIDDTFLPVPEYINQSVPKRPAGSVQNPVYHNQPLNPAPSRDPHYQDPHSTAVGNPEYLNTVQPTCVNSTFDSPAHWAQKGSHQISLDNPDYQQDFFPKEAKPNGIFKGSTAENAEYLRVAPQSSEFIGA
Protocol: Inhibition of EGFR Autophosphorylation in A431 Human Epithelial Cells Stimulated with Epithelial Growth Factor
A431 cells (ATCC #CRL-1555 FZ) are thawed and plated in DMEM containing 10% FBS in a 384-well tissue culture treated plate at 15,000 cells/well. After incubating for 24 hours at 37° C., 5% CO2, the cells are treated with test compound (1% DMSO final concentration) and incubated for 16 hours at 37° C., 5% CO2. EGF (Millipore, 01-107) is added at a final concentration of 60 ng/mL and incubated for 10 minutes. The medium is removed, the cells are lysed, and phospho EGFR is measured (Meso Scale Diagnostics, N31CB-1).
as §2

[7] = target: human recombinant full length TEC (His-tagged) (Homo sapiens (Human), UniProt P42680); assay: TEC Lanthscreen Eu Kinase Binding assay; conditions: 1 nM TEC
human recombinant full length TEC (His-tagged), sequence (P42680 whole entry): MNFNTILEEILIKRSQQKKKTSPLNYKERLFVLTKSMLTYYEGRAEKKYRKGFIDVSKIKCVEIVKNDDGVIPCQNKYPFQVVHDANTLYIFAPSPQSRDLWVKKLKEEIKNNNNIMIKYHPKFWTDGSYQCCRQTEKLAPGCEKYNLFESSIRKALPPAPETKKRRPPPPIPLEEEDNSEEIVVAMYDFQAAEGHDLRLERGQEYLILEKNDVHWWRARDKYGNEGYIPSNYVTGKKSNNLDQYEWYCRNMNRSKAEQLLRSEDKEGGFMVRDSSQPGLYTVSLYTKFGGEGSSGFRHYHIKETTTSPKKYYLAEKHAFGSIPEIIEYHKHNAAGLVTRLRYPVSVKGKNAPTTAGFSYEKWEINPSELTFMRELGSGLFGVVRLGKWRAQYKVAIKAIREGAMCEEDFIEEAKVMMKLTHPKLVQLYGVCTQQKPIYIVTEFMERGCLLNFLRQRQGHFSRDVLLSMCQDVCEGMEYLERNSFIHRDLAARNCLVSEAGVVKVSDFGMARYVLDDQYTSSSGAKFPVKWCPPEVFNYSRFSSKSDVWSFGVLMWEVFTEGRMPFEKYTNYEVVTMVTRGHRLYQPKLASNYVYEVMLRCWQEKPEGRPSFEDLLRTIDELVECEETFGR

[8] = target: human full length His-tagged BTK (Homo sapiens (Human), UniProt Q06187); assay: BTK Lanthscreen Eu Kinase Binding assay; conditions: 2 nM BTK
human full length His-tagged BTK, sequence (Q06187 whole entry): as the sequence (Q06187 whole entry) above
Protocol: BTK Lanthscreen® Eu Kinase Binding Assay:
A Lanthscreen® Eu Kinase Binding assay (Life Technologies) is performed to quantitate the ability of test compounds to bind to BTK. The assay is based on the binding and displacement of Alexa Fluor647-labeled Kinase Tracer #236 to the ATP-binding site of human full length His-tagged BTK (Life Technologies cat #PV3587) with TR-FRET detection using a europium-labeled anti-His antibody. The assay is assembled in 384-well low volume NBS black plates (Corning) where 2 nM BTK and test compound in DMSO at varying concentrations are pre-incubated for 30 min at 28° C. in assay buffer consisting of 50 mM HEPES, pH 7.4, 10 mM MgCl2, 1 mM EGTA. 100 μM Na3VO4 and 0.01% Brij 35. Then, 2 nM of Eu-anti His antibody and 30 nM Kinase Tracer are added and incubated for 60 min at 28° C. Following incubation, TR-FRET signal is read on an Envision plate reader (Excitation: 340 nm; Emissions: 615 and 665 nm). The 665:615 nm emission ratio is calculated and converted to POC compared to control and blank wells.

## CC#CC(=O)N1CC[C@]2(C1)C[C@H](n1nc(-c3cnn(Cc4ccccc4C(F)(F)F)c3)c(C(N)=O)c1N)C2 [Example 12]
[1]; 10 mg/kg po qd
  Cmax: 111 ± 37 nM
[1]; 30 mg/kg po qd
  Cmax: 344 ± 106 nM
[2]
  IC50: 130 nM
[3]
  IC50: 0.5 nM
[4]; 10 mg/kg
  5-Day 24-h MAP Change versus Control: No statistically significant
[4]; 30 mg/kg
  5-Day 24-h MAP Change versus Control: No statistically significant
[5]
  IC50: 1.7 nM
[6]
  IC50: > 10000 nM
[7]
  IC50: 92 nM
[8]
  IC50: 0.5 nM

## CC#CC(=O)N1CC[C@]2(C1)C[C@H](n1nc(-c3cnn(Cc4cccc(C(F)(F)F)c4)c3)c(C(N)=O)c1N)C2 [Example 22]
[1]; 10 mg/kg po qd
  Cmax: 170 ± 29 nM
[1]; 30 mg/kg po qd
  Cmax: 720 ± 262 nM
[2]
  IC50: 46 nM
[3]
  IC50: 0.8 nM
[4]; 10 mg/kg
  5-Day 24-h MAP Change versus Control: No statistically significant
[4]; 30 mg/kg
  5-Day 24-h MAP Change versus Control: No statistically significant
[5]
  IC50: 0.7 nM
[6]
  IC50: > 10000 nM
[7]
  IC50: 21 nM
[8]
  IC50: 0.3 nM
